Results as given in patent US20110142914A1, “INHALABLE COMPOSITIONS HAVING ENHANCED BIOAVAILABILITY” (CYTOTECH LABS, LLC, priority 2007, published 2011).

System: IL-12
Experiment: Inflammatory response to pulmonary administration: BAL supernatant ELISA for IL-12 elevation
Format: in vivo
Settings: mice
Procedure: Inflammatory response to the administration of CoQ10 (or the liposomal concentrate of CoQ10 produced in Example 1 above) to the lungs. Surgery is performed on sacrificed mice to expose the pleural cavity and trachea at the throat. […] An aliquot (about 0.75 mL) of phosphate buffered saline is instilled through the cannula into the lungs and removed to wash the bronchial and alveolar surfaces. This process is repeated for a total of three washes. The phosphate buffered saline containing cells is placed into centrifuge vials and centrifuged at about 3000 rpm (MiniSpin Plus, Eppendorf International, Hamburg, Del.). The supernatant is removed leaving the collected cells in the pellet. The supernatant from the BAL (Bronchoalveolar Lavage) is analyzed by enzyme-linked immunosorbent assay (ELISA) for IL-12 elevation (n=2 per sample tested).

Compound: COC1=C(OC)C(=O)C(C/C=C(\C)CC/C=C(\C)CC/C=C(\C)CC/C=C(\C)CC/C=C(\C)CC/C=C(\C)CC/C=C(\C)CC/C=C(\C)CC/C=C(\C)CCC=C(C)C)=C(C)C1=O [CoQ10, Coenzyme Q10]
- inflammation of the lung: not a cause of inflammation of the lung
- rise in IL-12 levels (BAL supernatant, ELISA) (n=2 per sample tested): not connected to a rise in IL-12 levels
